Legend:
Experiment in all cases: Microbial challenge testing in BPW
Format in all cases: cell-based
Aspergillus niger = system: Aspergillus niger
Description: (§1) The microorganisms used in challenge tests are given in Table 3, designated as either ATCC (American Type Culture Collection) or wild type. These wild type organisms were problematic organisms previously isolated from chemical products. In the description for each organism, the bacteria are indicated as either GN (Gram negative) or GP (Gram positive).
(§2) All of the microorganisms were grown in Tryptose Soy Broth (TSB), DIFCO™ available from Becton, Dickinson and Company, containing 1% dextrose. Aspergillus niger and Candida albicans were incubated at 22° C.±2° C. for at least 96 hours. All bacteria were incubated at 35° C.±2° C. in a humidified incubator for at least 96 hours.
(§3) Aspergillus niger and Candida albicans were also grown on Sabouraud dextrose agar (SDA) at 22° C.±2° C. for 7 to 14 days or until full sporulation was achieved.
(§4) The following procedure was followed to determine the amount of each challenge material (inoculum broth) required to produce a 10^8 cfu/mL challenge, which is equivalent to a final test-sample microbial concentration of 10^5 to 10^6 cfu (colony-forming units)/mL.
(§5) Using a sterile serological pipette, 1 mL of the growth from each TSB culture was transferred into tubes containing 9 mL phosphate buffer (pH 7.2) and mixed thoroughly. This process was repeated to make serial 1:10 dilutions. Then 0.1 mL of each sample and dilution was inoculated onto agar plates to produce the equivalent of a further 1:10 dilution. C. albicans and A. niger were inoculated onto SDA and bacteria were inoculated onto Plate Count Agar (PCA), DIFCO™ available from Becton, Dickinson and Company. The 0.1 mL aliquots were evenly distributed on the plates using the spread-plate technique. The spread-plate technique is performed by spreading the aliquot over the entire plate surface using a sterile spreading rod while rotating the plate with a rotary auto-plater. After the inoculum was absorbed completely, each plate was inverted and incubated (fungi at 22° C.±2° C. and bacteria at 35° C.±2° C.).
(§6) After incubation for at least 48 hours, colonies that had developed on the agar plates were counted and recorded with the corresponding dilution. If counting had to be delayed temporarily, plates were refrigerated, preferably no more than 24 hours, until they could be counted. The number of cfu/mL was determined by multiplying the count by the dilution factor for that particular plate.
(§7) Turbidity in Nepholemetric Turbidity Units (NTU) was measured for each serial dilution using the HF-Micro 100 Model Turbidimeter. For each microorganism, the plate counts were compared to the turbidity readings.
Aspergillus niger cultures were harvested and spores dislodged from the SDA on which they were grown by rubbing the growth gently with a sterile inoculating loop. The spores were then mixed into the broth culture that had been incubated with a sterile magnetic stir bar to reduce pellicle formation. The spore-culture mixture was filtered repeatedly through sterile, non-absorbent cotton and harvested repeatedly, adjusting vegetative cells and spores to a level of 1.0×10^8. A hemocytometer was used to verify the final challenge concentration.
(§8) Control substrates (“broth alone”) were prepared for each microorganism separately in triplicate by adding 13.5 mL of BPW (pH 7.0) containing 1% (w/v) dextrose to each 20-mL glass tube; then adding 1.5 mL challenge material to produce a final concentration at time zero of 10^5 to 10^6 cfu/mL and a total volume of 15 mL.
(§9) Test sample substrates were prepared containing each test material (1,4-CHDM, etc) or combination of test materials at the concentrations shown in Tables 5 and 6.

Candida albicans = system: Candida albicans
Description: as §1, §2, §3, §4, §5, §6, §7
On the day of challenge, the Candida albicans inoculum broth was poured through non-absorbent sterile gauze and centrifuged. The […] was then diluted with phosphate buffer (pH 7.2) until the desired turbidity was reached. Using a hemocytometer, a determination was made whether the challenge contained the desired concentration. Dilutions were made through 1.0×10^8 and three SDA spread plates were inoculated with 0.1 mL of each dilution.
as §8, §9

Proteus vulgaris = system: Proteus vulgaris
Description: as §1, §2, §4, §5, §6, §7, §8
(§10) Test sample substrates were prepared containing each test material (1,4-CHDM, etc) or combination of test materials at the concentrations shown in Tables 5 and 6. Sample substrates were prepared in triplicate, except those substrates containing PE or CG which were prepared in duplicate. Substrates were prepared by adding BPW containing 1% (w/v) dextrose to each 20-mL glass tube, then adding the test material in the amount appropriate to achieve the desired weight/volume percent (g/100 mL) and to obtain a total volume of BPW with dextrose and test material of 13.5 mL. Then 1.5 mL challenge material was added to produce a final concentration at time zero of 10^5 to 10^6 cfu/mL of the respective organism and a total test sample substrate volume of 15 mL.
(§11) After mixing, all challenged substrates were incubated at 35° C.±2° C. for 14 days and then at ambient room temperature.

Streptococcus mutans = system: Streptococcus mutans
Description: as §1, §2, §4, §5, §6, §7, §8, §10, §11

Aeromonas sp. = system: Aeromonas sp.
Description: as §1, §2, §4, §5, §6, §7, §8, §10, §11

Burkholderia cepacia = details: 0.05%
Description: as §1, §2, §4, §5, §6, §7, §8, §10, §11

Q: Which “Grade code A. niger” value (Aspergillus niger; 0.05%, 3 days incubation) does the source give for `O=c1[nH]sc2ccccc12` [BIT, 1,2-benzisothiazolin-3-one] here?
A: Its value is 4.

Q: What about the “Grade code A. niger” value (Aspergillus niger; 0.05%, 13 days incubation) of the same compound?
A: Its value is 4.

Q: What about the “Grade code A. niger” value (Aspergillus niger; 0.05%, 30 days incubation) of the same compound?
A: Its value is 4.

Q: And the “Grade code A. niger” value (Aspergillus niger; 0.2%, 3 days incubation)?
A: Its value is 4.

Q: And the “Grade code A. niger” value (Aspergillus niger; 0.2%, 13 days incubation)?
A: Its value is 4.

Q: And the “Grade code A. niger” value (Aspergillus niger; 0.2%, 30 days incubation)?
A: Its value is 4.

Q: What about the “Grade code C. albicans” value (Candida albicans; 0.05%, 3 days incubation) of the same compound?
A: The value was 4 (1001 to 10,000 colonies (thus 10,000 cfu/mL to 100,000 cfu/mL)).

Q: What about the “Grade code C. albicans” value (Candida albicans; 0.05%, 14 days incubation) of the same compound?
A: The value was 4 (1001 to 10,000 colonies (thus 10,000 cfu/mL to 100,000 cfu/mL)).

Q: And the “Grade code C. albicans” value (Candida albicans; 0.05%, 30 days incubation)?
A: Its value is 4 (1001 to 10,000 colonies (thus 10,000 cfu/mL to 100,000 cfu/mL)).

Q: What about the “Grade code C. albicans” value (Candida albicans; 0.2%, 3 days incubation) of the same compound?
A: The value was 4 (1001 to 10,000 colonies (thus 10,000 cfu/mL to 100,000 cfu/mL)).

Q: What about the “Grade code C. albicans” value (Candida albicans; 0.2%, 14 days incubation) of the same compound?
A: The value was 3 (101 to 1000 colonies (thus 1000 to 10,000 cfu/mL)).

Q: And the “Grade code C. albicans” value (Candida albicans; 0.2%, 30 days incubation)?
A: The value was 3 (101 to 1000 colonies (thus 1000 to 10,000 cfu/mL)).

Q: What about the “Grade code P. vulqaris” value (Proteus vulgaris; 0.05%, 3 days incubation) of the same compound?
A: Its value is 4 (1001 to 10,000 colonies (thus 10,000 cfu/mL to 100,000 cfu/mL)).

Q: What about the “Grade code P. vulqaris” value (Proteus vulgaris; 0.05%, 13 days incubation) of the same compound?
A: The value was 4 (1001 to 10,000 colonies (thus 10,000 cfu/mL to 100,000 cfu/mL)).

Q: And the “Grade code P. vulqaris” value (Proteus vulgaris; 0.05%, 30 days incubation)?
A: Its value is 4 (1001 to 10,000 colonies (thus 10,000 cfu/mL to 100,000 cfu/mL)).

Q: And the “Grade code P. vulqaris” value (Proteus vulgaris; 0.2%, 3 days incubation)?
A: Its value is 4 (1001 to 10,000 colonies (thus 10,000 cfu/mL to 100,000 cfu/mL)).

Q: And the “Grade code P. vulqaris” value (Proteus vulgaris; 0.2%, 13 days incubation)?
A: Its value is 2 (52 to 100 colonies counted (thus 520 to 1000 cfu/mL)).

Q: And the “Grade code P. vulqaris” value (Proteus vulgaris; 0.2%, 30 days incubation)?
A: The value was 0 (No growth detected or <1 colony (thus <10 cfu/mL)).

Q: And the “Grade code S. mutans” value (Streptococcus mutans; 0.05%, 3 days incubation)?
A: The value was 1.7.

Q: What about the “Grade code S. mutans” value (Streptococcus mutans; 0.05%, 13 days incubation) of the same compound?
A: The value was 0 (No growth detected or <1 colony (thus <10 cfu/mL)).

Q: What about the “Grade code S. mutans” value (Streptococcus mutans; 0.05%, 30 days incubation) of the same compound?
A: Its value is 0 (No growth detected or <1 colony (thus <10 cfu/mL)).

Q: What about the “Grade code S. mutans” value (Streptococcus mutans; 0.2%, 3 days incubation) of the same compound?
A: The value was 0 (No growth detected or <1 colony (thus <10 cfu/mL)).

Q: What about the “Grade code S. mutans” value (Streptococcus mutans; 0.2%, 13 days incubation) of the same compound?
A: The value was 0 (No growth detected or <1 colony (thus <10 cfu/mL)).

Q: What about the “Grade code S. mutans” value (Streptococcus mutans; 0.2%, 30 days incubation) of the same compound?
A: Its value is 0 (No growth detected or <1 colony (thus <10 cfu/mL)).

Q: What about the “Effectiveness against S. mutans (in words)” value (Streptococcus mutans; BIT alone) of the same compound?
A: Its value is “highly effective”.

Q: And the “Grade code Aeromonas sp” value (Aeromonas sp.; 0.05%, 3 days incubation)?
A: Its value is 5 (More than 10,000 colonies estimated (thus >100,000 cfu/mL)).

Q: What about the “Grade code Aeromonas sp” value (Aeromonas sp.; 0.05%, 14 days incubation) of the same compound?
A: Its value is 4 (1001 to 10,000 colonies (thus 10,000 cfu/mL to 100,000 cfu/mL)).

Q: What about the “Grade code Aeromonas sp” value (Aeromonas sp.; 0.05%, 30 days incubation) of the same compound?
A: The value was 4 (1001 to 10,000 colonies (thus 10,000 cfu/mL to 100,000 cfu/mL)).

Q: And the “Grade code Aeromonas sp” value (Aeromonas sp.; 0.2%, 3 days incubation)?
A: Its value is 4 (1001 to 10,000 colonies (thus 10,000 cfu/mL to 100,000 cfu/mL)).

Q: And the “Grade code Aeromonas sp” value (Aeromonas sp.; 0.2%, 14 days incubation)?
A: The value was 2 (52 to 100 colonies counted (thus 520 to 1000 cfu/mL)).

Q: What about the “Grade code Aeromonas sp” value (Aeromonas sp.; 0.2%, 30 days incubation) of the same compound?
A: Its value is 2 (52 to 100 colonies counted (thus 520 to 1000 cfu/mL)).

Q: And the “Grade code B. cepacia” value (Burkholderia cepacia; 3 days incubation)?
A: The value was 4 (1001 to 10,000 colonies (thus 10,000 cfu/mL to 100,000 cfu/mL)).

Q: What about the “Grade code B. cepacia” value (Burkholderia cepacia; 14 days incubation) of the same compound?
A: The value was 4 (1001 to 10,000 colonies (thus 10,000 cfu/mL to 100,000 cfu/mL)).
